# According to patent US20090221655A1, “ANTIBACTERIAL AGENTS” (Pitzer, Inc., priority 2006, published 2009):
# Legend:
# Type in all cases: cell-based
# S. aureus UC-76 SA-1 = experiment: in vitro antibacterial activity (MIC), S. aureus; conditions: Staphylococcus aureus, UC76; strain UC-76 SA-1; MIC = lowest concentration preventing macroscopically visible growth; read-out: in vitro antibacterial activity MIC5 S. aureus UC-76 SA-1
# Description: (§1) The in vitro antibacterial activity of the compounds of the present invention may be assessed by following procedures recommended in (1) National Committee for Clinical Laboratory Standards (January 2003), Methods for dilution antimicrobial tests for bacteria that grow aerobically, Approved Standard (6th ed), M7-A6, NCCLS, Wayne, Pa.; (2) National Committee for Clinical Laboratory Standards (March 2001), Methods for antimicrobial susceptibility testing of anaerobic bacteria, Approved Standard (5th ed), M11-A4, NCCLS, Wayne, Pa.; (3) National Committee for Clinical Laboratory Standards (Jan. 2003), MIC testing supplemental tables, M100-S13 (for use with M7-A6), NCCLS, Wayne, Pa.; and (4) Murray P R, Baron E J, Jorgensen J H, et al. Manual of Clinical Microbiology (8th ed) Washington, D.C.: American Society for Microbiology Press, 2003. The antibacterial activity can be presented in the form of MIC value. The MIC value is the lowest concentration of drug, which prevented macroscopically visible growth under the conditions of the test.
# S. pneumoniae SV1 SP-3 = experiment: in vitro antibacterial activity (MIC), S. pneumoniae; conditions: Streptococcus pneumoniae, SV1SP3; strain SV1 SP-3; MIC = lowest concentration preventing macroscopically visible growth; read-out: in vitro antibacterial activity MIC5 S. pneumoniae SV1 SP-3
# Description: as §1
# E. faecalis MGH-2 EF 1-1 = experiment: in vitro antibacterial activity (MIC), E. faecalis; conditions: Enterococcus faecalis, MGH2EF11; strain MGH-2 EF 1-1; MIC = lowest concentration preventing macroscopically visible growth; read-out: in vitro antibacterial activity MIC5 E. faecalis MGH-2 EF 1-1
# Description: as §1
Structure (SMILES),MIC (S. aureus UC-76 SA-1) [µg/mL],MIC (S. pneumoniae SV1 SP-3) [µg/mL],MIC (E. faecalis MGH-2 EF 1-1) [µg/mL]
"CC(=O)NC[C@H]1CN(c2ccc3c(C)noc3c2)C(=O)O1 [Example 1, (S)—N-[3-(3-methyl-benzo[d]isoxazol-6-yl)-2-oxo-oxazolidin-5-ylmethyl]-acetamide]",2,1,2
"CCC(=O)NC[C@H]1CN(c2ccc3c(C)noc3c2)C(=O)O1 [Example 2, (S)—N-[3-(3-methyl-benzo[d]isoxazol-6-yl)-2-oxo-oxazolidin-5-ylmethyl]-propionamide]",2,2,4
"COC(=O)NC[C@H]1CN(c2ccc3c(C)noc3c2)C(=O)O1 [Example 3, (S)-[3-(3-methyl-benzo[d]isoxazol-6-yl)-2-oxo-oxazolidin-5-ylmethyl]-carbamic acid methyl ester]",4,2,4
"Cc1noc2cc(N3C[C@H](Cn4ccnn4)OC3=O)ccc12 [Example 4, (R)-3-(3-methyl-benzo[d]isoxazol-6-yl)-5-[1,2,3]triazol-1-ylmethyl-oxazolidin-2-one]",4,2,4
"Cc1noc2cc(N3C[C@H](C(N)=O)OC3=O)ccc12 [Example 6, (R)-3-(3-methyl-benzo[d]isoxazol-6-yl)-2-oxo-oxazolidine-5-carboxylic acid amide]",4,4,8
"CNC(=O)[C@H]1CN(c2ccc3c(C)noc3c2)C(=O)O1 [Example 7, (R)-3-(3-methyl-benzo[d]isoxazol-6-yl)-2-oxo-oxazolidine-5-carboxylic acid methylamide]",4,4,4
"CONC(=O)[C@H]1CN(c2ccc3c(C)noc3c2)C(=O)O1 [Example 8, (R)-3-(3-methyl-benzo[d]isoxazol-6-yl)-2-oxo-oxazolidine-5-carboxylic acid methoxy-amide]",4,8,4
"CCONC(=O)[C@H]1CN(c2ccc3c(C)noc3c2)C(=O)O1 [Example 9, (R)-3-(3-methyl-benzo[d]isoxazol-6-yl)-2-oxo-oxazolidine-5-carboxylic acid ethoxy-amide]",4,8,4
